In ChEMBL document CHEMBL5260811, “Drug development against tuberculosis: Impact of alkaloids” (Eur J Med Chem, 2017):
In brackets after ≈: the same amount, converted by molar mass. Starred links: 1 amine or outer side, 2 acyl side, 3 side chain; linkers in the order of their positions; H or OH if unused. Positions of bridges follow the written chain, without caps; N, C: chain ends. Non-standard residues stand in square brackets, D forms with d. Residues, ends and D or L forms follow the SMILES beside them. ξ: configuration not given here. *: point of attachment. X2 = N=C1NCCC([C@H](N[*:1])C(=O)[*:2])N1; ΔAla(Z-3-ureido) = NC(=O)N/C=C(\N)C(=O)O; ξβ3hOrn = NCCCC(N)CC(=O)*; Dap = NC[C@H](N)C(=O)O

Tests used:
[1] = tested on: Mycobacterium tuberculosis; test: Antimycobacterial activity against Mycobacterium tuberculosis Rv0006 harbouring gyrA gene; format: functional
[2] = tested on: Mycobacterium tuberculosis; test: Antimycobacterial activity against Mycobacterium tuberculosis Rv0005 harbouring gyrB gene; format: functional
[3] = tested on: Mycobacterium tuberculosis; test: Antimycobacterial activity against Mycobacterium tuberculosis Rv0050 harbouring ponA1 gene; format: functional
[4] = tested on: Mycobacterium tuberculosis; test: Antimycobacterial activity against Mycobacterium tuberculosis Rv2068c harbouring blaC gene; format: functional
[5] = tested on: Mycobacterium tuberculosis; test: Antimycobacterial activity against Mycobacterium tuberculosis Rv2163c harbouring pbpB gene; format: functional
[6] = tested on: Mycobacterium tuberculosis; test: Antimycobacterial activity against Mycobacterium tuberculosis Rv1484 harbouring inhA gene; format: functional
[7] = tested on: Mycobacterium tuberculosis; test: Antimycobacterial activity against Mycobacterium tuberculosis Rv0701 harbouring rplC gene; format: functional
[8] = tested on: Mycobacterium tuberculosis; test: microbe, parasite or virus in culture
[9] = tested on: Mycobacterium tuberculosis; test: Antimycobacterial activity against Mycobacterium tuberculosis harbouring katG gene; format: functional
[10] = tested on: Mycobacterium tuberculosis; test: Antimycobacterial activity against Mycobacterium tuberculosis Rv3790 harbouring DprE1 gene; format: functional
[11] = tested on: Mycobacterium tuberculosis; test: Antimycobacterial activity against Mycobacterium tuberculosis harbouring fdxA gene; format: functional
[12] = tested on: Mycobacterium tuberculosis; test: Antimycobacterial activity against Mycobacterium tuberculosis Rv2156c harbouring mraY gene; format: functional
[13] = tested on: Mycobacterium tuberculosis; test: Antimycobacterial activity against Mycobacterium tuberculosis Rv0667 harbouring rpoB gene; format: functional
[14] = tested on: Mycobacterium tuberculosis; test: Antimycobacterial activity against Mycobacterium tuberculosis 000019 harbouring rrs gene; format: functional
[15] = tested on: Mycobacterium tuberculosis; test: Antimycobacterial activity against Mycobacterium tuberculosis Rv1305 harbouring atpE gene; format: functional
[16] = tested on: Mycobacterium tuberculosis; test: Antimycobacterial activity against drug-resistant Mycobacterium tuberculosis; format: functional
[17] = tested on: Mycobacterium tuberculosis; test: Antimycobacterial activity against Mycobacterium tuberculosis harbouring thyA gene; format: functional
[18] = tested on: Mycobacterium tuberculosis; test: Antimycobacterial activity against Mycobacterium tuberculosis harbouring rrs gene; format: functional
[19] = tested on: Mycobacterium tuberculosis; test: Antimycobacterial activity against Mycobacterium tuberculosis harbouring pncA gene; format: functional
[20] = tested on: Mycobacterium tuberculosis; test: microbe, parasite or virus in culture; remark: listed apart in the source
[21] = tested on: Mycobacterium tuberculosis; test: Antimycobacterial activity against Mycobacterium tuberculosis harbouring rpsL gene; format: functional

`O=C(O)c1cn(C2CC2)c2cc(N3CCNCC3)c(F)cc2c1=O` [CIPROFLOXACIN] gave an MIC [1] of 0.125 µg/mL (≈ 0.377 µM) and an MIC [2] of 0.125 µg/mL (≈ 0.377 µM).
In the case of `O=C(O)[C@H]1/C(=C/CO)O[C@@H]2CC(=O)N21` [CLAVULANIC ACID], the MIC [3] is reported as 0.23 µM (≈ 0.0458 µg/mL), the MIC [4] is reported as 0.23 µM and the MIC [5] is reported as 0.23 µM.
With `CCCc1cc(C(N)=S)ccn1` [PROTIONAMIDE] the MIC [6] was 0.3 µg/mL (≈ 1.66 µM).
With `CC(=O)NC[C@H]1CN(c2ccc(N3CCOCC3)c(F)c2)C(=O)O1` [LINEZOLID] the MIC [7] was 0.5 µg/mL (≈ 1.48 µM).
For `CCc1cc(C(N)=S)ccn1` [ETHIONAMIDE], the MIC [8] was 0.6 µg/mL (≈ 3.61 µM).
`CCOC(=O)NC(=O)c1ccsc1NC(=O)c1nc2ccccc2s1` was tested, and the MIC [9] was 0.01 µg/mL (≈ 0.0266 µM), the MIC [10] was 0.01 µg/mL (≈ 0.0266 µM) and the MIC [11] was 0.01 µg/mL (≈ 0.0266 µM).
In the case of `CCCCCCCCCC(=O)O[C@H]1[C@@H](OC)[C@H]([C@H](O[C@@H]2OC(C(=O)N[C@@H]3CCC[C@H](C)NC3=O)=C[C@@H](O)[C@H]2O)[C@H](N)O)O[C@@H]1n1ccc(=O)[nH]c1=O`, the MIC [12] is reported as 0.12 µg/mL (≈ 0.162 µM).
`CO[C@H]1/C=C/O[C@@]2(C)Oc3c(C)c(O)c4c(O)c(c(/C=N/N5CCN(C6CCCC6)CC5)c(O)c4c3C2=O)NC(=O)/C(C)=C\C=C\[C@H](C)[C@H](O)[C@@H](C)[C@@H](O)[C@@H](C)[C@H](OC(C)=O)[C@@H]1C` [RIFAPENTINE] gave an MIC [13] of 0.03 µg/mL (≈ 0.0342 µM).
With `NCC[C@H](O)C(=O)N[C@@H]1C[C@H](N)[C@@H](O[C@H]2O[C@H](CN)[C@@H](O)[C@H](O)[C@H]2O)[C@H](O)[C@H]1O[C@H]1O[C@H](CO)[C@@H](O)[C@H](N)[C@H]1O` [AMIKACIN] the MIC [14] was 0.12 µg/mL (≈ 0.205 µM).
Molecule `COc1nc2ccc(Br)cc2cc1[C@@H](c1ccccc1)[C@@](O)(CCN(C)C)c1cccc2ccccc12` [BEDAQUILINE] has an MIC [15] of 0.063 µg/mL (≈ 0.113 µM) and an MIC [16] of 60 µg/mL (≈ 108 µM).
`Nc1ccc(C(=O)O)c(O)c1` [AMINOSALICYLIC ACID] showed an MIC [17] of 1 µg/mL (≈ 6.53 µM).
In the case of `N=C1NCCC([C@@H]2NC(=O)/C(=C/NC(N)=O)NC(=O)[C@H](CNC(=O)CC(N)CCCN)NC(=O)[C@H](CO)NC(=O)[C@@H](N)CNC2=O)N1` (stereo partly drawn) (H-[Dap]S[Dap](ξβ3hOrn)[ΔAla(Z-3-ureido)][X2]; lactam 1-C), the MIC [18] is reported as 1.25 µg/mL (≈ 1.87 µM).
`C[C@H]1COc2c(N3CCN(C)CC3)c(F)cc3c(=O)c(C(=O)O)cn1c23.C[C@H]1COc2c(N3CCN(C)CC3)c(F)cc3c(=O)c(C(=O)O)cn1c23.O` [LEVOFLOXACIN] showed an MIC [1] of 0.5 µg/mL and an MIC [2] of 0.5 µg/mL.
`CC(=O)NC[C@H]1CN(c2ccc(N3CCSCC3)c(F)c2)C(=O)O1` [SUTEZOLID] showed an MIC [7] of 0.5 µg/mL (≈ 1.41 µM).
For `C[C@@H](O)[C@H]1C(=O)N2C(C(=O)O)=C(S[C@@H]3CN[C@H](C(=O)N(C)C)C3)[C@H](C)[C@H]12` [MEROPENEM], the MIC [4] was 0.5 µg/mL and the MIC [5] was 0.5 µg/mL.
`NC(=O)c1cnccn1` [PYRAZINAMIDE] showed an MIC [19] of 20 µg/mL (≈ 162 µM).
Work on `CO[C@H]1/C=C/O[C@@]2(C)Oc3c(C)c(O)c4c(O)c(c(/C=N/N5CCN(C)CC5)c(O)c4c3C2=O)NC(=O)/C(C)=C\C=C\[C@H](C)[C@H](O)[C@@H](C)[C@@H](O)[C@@H](C)[C@H](OC(C)=O)[C@@H]1C` [RIFAMPIN] yielded an MIC [20] of 0.05 µg/mL (≈ 0.0608 µM).
In the case of `CN[C@@H]1[C@H](O[C@H]2[C@H](O[C@H]3[C@H](O)[C@@H](O)[C@H](N=C(N)N)[C@@H](O)[C@@H]3N=C(N)N)O[C@@H](C)[C@]2(O)C=O)O[C@@H](CO)[C@H](O)[C@H]1O` [STREPTOMYCIN], the MIC [18] is reported as 2 µg/mL (≈ 3.44 µM) and the MIC [21] is reported as 2 µg/mL (≈ 3.44 µM).
